Measured values published in patent publication US11608318B2, “Solid state forms of Omecamtiv mecarbil and Omecamtiv mecarbil diHCl” (ASSIA CHEMICAL INDUSTRIES LTD., priority 2018, dated 2023).

Excerpt: (§1) Pharmaceutical molecules may display solid to solid phase transformations and transformations between polymorphs; which may detected by exposure of the solid state form to stress conditions of e.g., high temperature and high relative humidity.
as §1

Malonic Omecamtiv mecarbil diHCl [form OCM-3]
thermodynamic and mechanical stability of the solid state form (polymorphic conversion): thermodynamically and mechanically stable
